Assay results: PubChem BioAssay AID179 (DTP/NCI, 2004)
The source made the active and inactive calls.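 The calls were made as follows: active = compounds giving half or more protection of infected cells from virus-caused growth loss, again on retest; inactive = the rest.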

System: CEM cells HIV-1 protection, formazan growth assay
Assay: NCI AIDS Antiviral Assay
Conditions: for IC50: measured here: growth of uninfected CEM cells
In short: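 CEM (human) cells, HIV-1 infected vs uninfected, 5-point dosing, formazan growth read-out. Retest threshold 50% protection.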

SMILES	EC50	IC50	outcome
C=CCNC(=S)N1CC(C)C(=O)Nc2ccccc21 (stereo not given)	> 661 µM	> 661 µM	
CCOC(=O)C1(Sc2ccccc2)CCC2c3[nH]c4ccccc4c3CCN2C1=O (stereo not given)	> 12.3 µM	> 12.3 µM	
COc1ccc([C@H]2[C@H]3COC(=O)[C@H]3C(C#N)=C3Sc4ccccc4N32)cc1	> 200 µM	12.9 µM	
CC(=O)Nc1ccc2[nH]c(C(=O)N3CC(CCl)c4c3cc([N+](=O)[O-])c3ccccc43)cc2c1 (stereo not given)	> 2 µM	1.7 µM	
c1cc2nnc1SCCSCCSCCSc1ccc(nn1)SCCSCCSCCS2	> 200 µM	> 200 µM	
O=[N+]([O-])c1ccc(C2N3CCCCC3[C@H]3CCCCN23)cc1 (stereo not given in full)	> 24 µM	> 24 µM	
CCN(CC)CCCNC(=O)c1ccccc1Nc1c(Cl)cccc1Cl	> 200 µM	6.76 µM	
COc1ccc(/C=C2/C(=O)N(/C=C3\C(=O)Oc4ccccc4C3=O)C(=NC(C)=O)N2C)cc1OC	> 200 µM	126 µM	
Cc1[nH]c(-c2ccccc2)c(O)c1C(=O)OC12CC3CC(CC(C3)C1)C2	> 200 µM	30.9 µM	
C=CCc1cc(OC)c2c(c1)C(O)CC(c1ccccc1)O2 (stereo not given)	> 170 µM	> 170 µM	
CCCCOC(=O)C(=O)C(CC(CC)C(=O)c1ccccc1)C(=O)C=C(C)C (stereo not given)	> 646 µM	> 646 µM	
O=C1C(Br)=C[C@H]2C3C=CC(Br)(C3=O)[C@@H]12 (stereo not given in full)	> 794 µM	3.72 µM	
O=C1CN(N2C(=O)CSC2C23CC4CC(CC(C4)C2)C3)C(=O)CN1c1ccccc1 (stereo not given)	> 151 µM	> 151 µM	
COc1ccc2ccnc(Cc3ccc(OCc4ccccc4)c(OC)c3)c2c1			inactive
CCSC(=O)C1(C)Cc2ccccc2O1 (stereo not given)			inactive
N#CC(C(=O)/C(=N/Nc1nc(=S)[nH]n1N)C(C#N)c1ccccc1)c1ccccc1 (stereo not given)	> 17.4 µM	> 17.4 µM	
COc1ccc2nc3cc(Cl)ccc3c(Sc3ccc([N+](=O)[O-])cc3C)c2c1	> 12.6 µM	> 12.6 µM	
O=c1cn[nH]c2ccc(Br)cc12	> 95.5 µM	> 95.5 µM	
CCOC(=O)c1c(N2CCCC2)[nH]c(=O)c(C(c2cccs2)c2c(O)c(C(=O)OCC)c(N3CCCC3)[nH]c2=O)c1O	> 200 µM	141 µM	
CC(C)/C=N\N1C(N)=C(C#N)C(C#N)(C#N)C1C(C)C (stereo not given)	> 200 µM	41.7 µM	
O=C(Nc1ccc(S(=O)(=O)c2ccc(NS(=O)(=O)Cc3ccccc3[N+](=O)[O-])cc2)cc1)c1ccccc1SSc1ccccc1C(=O)Nc1ccc(S(=O)(=O)c2ccc(NS(=O)(=O)Cc3ccccc3[N+](=O)[O-])cc2)cc1	28.2 µM	> 200 µM	
C=C1CCC[C@@H]2[C@@](C)(CC3=CC(=O)C=CC3=O)C(C)CC[C@]12C (stereo not given in full)	> 60.3 µM	0.427 µM	
CC(=O)Nc1ccc(C2CC(c3ccc([N+](=O)[O-])cc3)=Nc3ccccc3S2=O)cc1 (stereo not given)	> 3.31 µM	> 3.31 µM	

SMILES	EC50	IC50	outcome
O=C1c2cc(-c3ccccc3)cnc2S(=O)(=O)N1c1ccc(Br)cc1	> 200 µM	16.6 µM	
CC1=C(C#N)C(=O)OC1(C)C(CC(=O)c1ccccc1)c1ccccc1 (stereo not given)	> 200 µM	8.32 µM	
CC(C)(C)NC(=O)CCC1C(C(=O)NC(C)(C)C)C2(Cl)C(Cl)=C(Cl)C1(Cl)C2(Cl)Cl (stereo not given)	> 200 µM	> 200 µM	
CC(=O)C1=C(C)Cn2c(=O)c3ccccc3c(=O)n2C1	> 95.5 µM	> 95.5 µM	
N#Cc1c(N)nc(-c2ccc(Cl)cc2)c2c1-c1ccccc1S(=O)(=O)CC2	> 100 µM	> 100 µM	
O=c1nc2c(c(-c3ccc(F)cc3)[nH]1)COC/C2=C\c1ccc(F)cc1			inactive
O=c1c2ccccc2nc(-c2ccccc2Cl)n1NCC1(O)OCC(O)C(O)C1O (stereo not given)			inactive
Cn1c(=O)ccc2c1nc1ccccc1[n+]2[O-]	> 60.3 µM	> 60.3 µM	
CN(NC(=O)c1cccs1)C1=NCCCCN1	> 200 µM	> 200 µM	
O=S(=O)([O-])[O-].[Fe+2].[OH2+]c1c(Cl)cc(Cl)cc1/C=N/Nc1ccccn1			inactive
CN1COCc2cc3cc4c(cc3nc21)OCCO4	> 200 µM	97.7 µM	
O=[N+]([O-])c1ccc(N/N=C2/CC3=C2CCCCCCCCCC3)c([N+](=O)[O-])c1	> 100 µM	> 100 µM	
Cc1cccc(C)c1OC(F)(F)c1nc2ccccc2o1	> 200 µM	30.2 µM	
C=CC[C@]1(C(C)Cc2ccc(OC)c(OC)c2)C[C@@H](OC)C=CC1=O (stereo not given in full)	> 10 µM	2.88 µM	
COc1cc(C2NCCC(c3ccccc3)(c3ccccc3)N2)cc(OC)c1OC (stereo not given)	> 200 µM	19.5 µM	
CC(C)c1cc(C(C)C)c(S(=O)(=O)N=[N+]=[N-])c(C(C)C)c1	> 17 µM	> 17 µM	
COc1cc2c(cc1O)[C@H](C)C(c1ccccc1OC)O2 (stereo not given in full)	> 66.1 µM	3.98 µM	
COc1cc(CNc2nc3cc(C(F)(F)F)ccc3nc2C(=O)O)cc(OC)c1OC	> 200 µM	97.7 µM	
CC(C)OC(=O)c1ccc(NCc2cc(O)ccc2O)cc1Cl	> 200 µM	3.63 µM	
CC(=O)c1c(C)nc(SSc2nc(C)c(C(C)=O)c(-c3ccc(Cl)cc3)c2C#N)c(C#N)c1-c1ccc(Cl)cc1	> 200 µM	> 200 µM	
NC(=O)CNC(=O)c1ccc([As](=O)(O)O)cc1	> 200 µM	> 200 µM	
O=c1[nH]c2cccnc2c(=O)n1O	> 200 µM	69.2 µM	
